Experiment: Aerosol treatment for dyspnea, FEV1/FVC ratio
Type: in vivo
Settings: aerosol formulation, 50 μg every 8 hr continuously for dyspnea; after a week of treatment
Procedure: Ten minutes and 36 hours later, the mice are moved to whole body plethysmograph chambers. Bronchoconstriction is induced in mice by administration of an 80 mg/ml methacholine (MC) aerosol into the plethysmograph chambers for 5 minutes. The mice are allowed to inhale an aerosol containing 80 mg/ml methacholine following inhalation treatment with DPBS vehicle (Dulbecco's Phosphate Buffered Saline), or 80 mg/ml methacholine following inhalation treatment with 1.29 mg/ml of the title compound of example I. The average enhanced pause (Penh, lung resistance), corresponding to airflow resistance, is determined and statistically analyzed using Kruskal-Wallis one way ANOVA. In order to determine the baseline, saline aerosol (without methacholine) is also separately administered to the mice, treated with the compound of example I in an aerosol formulation, 50 μg every 8 hr continuously for dyspnea. After a week of treatment, the FEV1/FVC ratio improves to about 65%.

C[N+]1(Cc2cccc(N)n2)CCC(NC(=O)[C@](O)(c2ccccc2)[C@@H]2CCC(F)(F)C2)CC1.[I-] (stereo partly drawn) [Example I, (2R)-N-[1-(6-aminopyridin-2-ylmethyl)1-methylpiperdin-4-yl]-2-[(1R)-3,3,-difluorocyclopentyl]-2-hydroxy-2-phenylacetamide iodide]
FEV1/FVC ratio: about 65%

From US6878730B2, “Quaternary ammonium compounds” (Pharmacia & UpJohn, priority 2002, dated 2005)
